Laboratory results: patent publication US6110491A, “Compound-loaded liposomes and methods for their preparation” (Hermes Biosciences, Inc., priority 1997, dated 2000)

Assays:
[1] = Doxorubicin loading into liposomes with entrapped sodium salts of sulfuric, phosphoric, polyvinylsulfuric or polyphosphoric acid, without or with nigericin (Examples 4, 5); type: physicochemical
Procedure: Liposomes were prepared from egg phosphatidylcholine using the procedure identical to Example 1 but instead of polyacrylic acid, the inner buffers contained one of the following salts: sodium sulfate, sodium phosphate, sodium polyvinylsulfate (Fluka, Ronkonkoma, N.Y.; average chain length n=13), or sodium polyphosphate (Sigma Chemical Co.; average chain length n=13-18), at a concentration of 100 mill-equivalents of sodium/L. The liposomes were incubated with doxorubicin (300 nmol/μmol of phospholipid) overnight, free drug was removed from the liposomes, and the liposomes were assayed as described in Example 1. Drug incorporation into the liposomes was as follows (in nmol/μmol of phospholipid): sodium sulfate, 82.1±0.95; sodium phosphate, 76.8±2.3; sodium polyvinylsulfate, 109.8±0.25; sodium polyphosphate, 85.2±2.2; "blank" liposomes, containing 100 mM sodium chloride, 1.03±0.06.
Liposomes were prepared and loading with doxorubicin as in Example 4, except that prior to drug loading, nigericin was added to the liposomes at a concentration of 5 μmol/L. The following drug incorporation (nmol/μmol of phospholipid) was obtained in the liposomes containing: sodium sulfate, 96.5±1.9; sodium phosphate, 271.9±3.8; sodium polyvinylsulfate, 133.7±1.9; sodium polyphosphate, 169.7±2.7.

[2] = Doxorubicin loading into liposomes with entrapped anions essentially free from transmembrane pH or ammonium ion gradients (Example 8); type: physicochemical; settings: 36° C., 12 hours
Procedure: Aqueous solutions containing ammonium salts of hydrochloric, nitric, methanesulfonic, L(+)-tartaric, citric, sulfuric, phosphoric, diethylenetriamine pentaacetic (DTPA), or polyacrylic (Mol. weight. 2,000) acids were prepared by titration of the respective acids in water with the standard aqueous solution of ammonium hydroxide to achieve pH 7.3±0.05,followed by volume adjustment to achieve 0.2 equivalent/L of ammonium ion, and, if necessary, by addition of dry sucrose to achieve osmolarity of 377 mmol/kg. (These solutions are hereinafter referred to as Inner Buffers). All solutions additionally contained 10 mM hydroxyethylpiperazinoethane sulfonic acid (HEPES) to stabilize the pH at titration endpoint. To afford determination of intraliposomal pH, a fluorescence indicator 8-hydroxypyrene trisulfonate was added to the solutions to the final concentration of 0.2 mM. Liposomes containing entrapped ammonium salt solutions as above were prepared from egg phosphatidyl choline, cholesterol, and PEG-DSPE as described in the Example 7, except that lipid hydration and extrusion were carried out at room temperature. The bulk aqueous phases of liposome preparations were exchanged by gel-filtration for an aqueous solution (Outer buffer) containing 0.2 M ammonium chloride, 10 mM HEPES, pH 7.3, osmolarity 377 mmol/kg, to obtain liposome preparations substantially without transmembrane ammonium-ion gradients. Loading of doxorubicin was performed as in Example 7, except that it was at 36° C. for 12 hours. Intraliposomal pH was determined using HPTS fluorescence method (Straubinger, et al., 1990) prior to drug loading, and indicated essentially no inside-outside pH gradient (less than 0.2 pH units), compared with the gradient of several pH units typical for ammonium ion gradient liposomes (Haran, et al., 1993). The following results were obtained (nd, not determined)

Question: What does the source list for `COc1cccc2c1C(=O)c1c(O)c3c(c(O)c1C2=O)C[C@@](O)(C(=O)CO)C[C@@H]3O[C@H]1C[C@H](N)[C@H](O)[C@H](C)O1` [doxorubicin]?
Answer: Drug incorporation into the liposomes ([1]; "blank" liposomes containing 100 mM sodium chloride, doxorubicin 300 nmol/μmol): 1.03±0.06 nmol/μmol of phospholipid; Drug incorporation into the liposomes ([1]; entrapped sodium phosphate, doxorubicin 300 nmol/μmol, overnight, no nigericin): 76.8±2.3 nmol/μmol of phospholipid; Drug incorporation into the liposomes ([1]; entrapped sodium phosphate, nigericin 5 μmol/L): 271.9±3.8 nmol/μmol of phospholipid; Drug incorporation into the liposomes ([1]; entrapped sodium polyphosphate, doxorubicin 300 nmol/μmol, overnight, no nigericin): 85.2±2.2 nmol/μmol of phospholipid; Drug incorporation into the liposomes ([1]; entrapped sodium polyphosphate, nigericin 5 μmol/L): 169.7±2.7 nmol/μmol of phospholipid; Drug incorporation into the liposomes ([1]; entrapped sodium polyvinylsulfate, doxorubicin 300 nmol/μmol, overnight, no nigericin): 109.8±0.25 nmol/μmol of phospholipid; Drug incorporation into the liposomes ([1]; entrapped sodium polyvinylsulfate, nigericin 5 μmol/L): 133.7±1.9 nmol/μmol of phospholipid; Drug incorporation into the liposomes ([1]; entrapped sodium sulfate, doxorubicin 300 nmol/μmol, overnight, no nigericin): 82.1±0.95 nmol/μmol of phospholipid; Drug incorporation into the liposomes ([1]; entrapped sodium sulfate, nigericin 5 μmol/L): 96.5±1.9 nmol/μmol of phospholipid; Effect of nigericin on drug loading ([1]; permeabilization of liposome membrane by nigericin 5 μmol/L): did not decrease drug loading; Doxorubicin incorporation into liposomes ([2]; inner buffer anion DTPA): 40.8 mg of drug/mmol of liposome ph; Doxorubicin incorporation into liposomes ([2]; inner buffer anion L(+)-tartrate): 27.5 mg of drug/mmol of liposome ph; Doxorubicin incorporation into liposomes ([2]; inner buffer anion chloride): 16.8 mg of drug/mmol of liposome ph; Doxorubicin incorporation into liposomes ([2]; inner buffer anion citrate): 97.9 mg of drug/mmol of liposome ph; Doxorubicin incorporation into liposomes ([2]; inner buffer anion methanesulfonate): 17.1 mg of drug/mmol of liposome ph; Doxorubicin incorporation into liposomes ([2]; inner buffer anion nitrate): 12.4 mg of drug/mmol of liposome ph; Doxorubicin incorporation into liposomes ([2]; inner buffer anion phosphate): 68.1 mg of drug/mmol of liposome ph; Doxorubicin incorporation into liposomes ([2]; inner buffer anion polyacrylate): 142.7 mg of drug/mmol of liposome ph; Doxorubicin incorporation into liposomes ([2]; inner buffer anion sulfate): 33.5 mg of drug/mmol of liposome ph
